The source of these data is patent publication US20200048183A1, “ANTIMICROBIAL AGENTS” (THE UNIVERSITY OF WARWICK, priority 2017, published 2020).

In brackets after ≈: the same amount, converted by molar mass.

In one test the test system is multi-drug resistant A. baumannii strains. Description: Minimum inhibitory concentration (MIC), broth microdilution method according to CLSI guidelines. It counts as cell-based, Acinetobacter baumannii. The following applies: Acinetobacter baumannii, 18 h, read-out: MIC against A. baumannii. How it is done: MIC values for the compounds were determined using the broth microdilution method according to the official CLSI guidelines. Acinetobacter baumannii test strains were grown overnight in Mueller-Hinton (MH) broth at 37° C. In a 96-well microtiter plate, 50 μl of serial two-fold dilutions of an enacyloxin derivative in MH broth were mixed with 50 μl of bacterial suspension, diluted to a concentration of 10^6 CFU/ml in MH broth. The desired inoculum density was achieved using a 0.5 McFarland turbidity standard.
For the compound `CC/C=C/[C@@H](OC(N)=O)[C@@H](Cl)[C@H](O)CC(O)[C@@H](O)[C@H](O)[C@H](C)/C(Cl)=C/C=C/C=C(C)/C=C/C=C/C(=O)O[C@@H]1C[C@@H](C(=O)O)CC[C@@H]1O` (stereo in doubt) [Compound 8, 15-hydroxy-enacyloxin IIa], the minimal inhibitory concentration (MIC) (as a rule, the least concentration at which growth counts as inhibited) stood at 8 µg/mL (≈ 11.4 µM).

Turning to `CC/C=C/[C@@H](OC(N)=O)[C@@H](Cl)[C@H](O)CC(=O)[C@@H](O)[C@H](O)[C@H](C)/C(Cl)=C/C=C/C=C(C)/C=C/C=C/C(=O)O[C@@H]1C[C@@H](C(=O)O)C[C@@H](O)[C@@H]1O` [Compound 4, 5′-hydroxy-enacyloxin IIa], the MIC was determined as 16 µg/mL (≈ 22.3 µM).

Take `CC/C=C/C(=O)C[C@H](O)CC(=O)[C@@H](O)[C@H](O)[C@H](C)/C(Cl)=C/C=C/C=C(C)/C=C/C=C/C(=O)O[C@@H]1C[C@@H](C(=O)O)CC[C@@H]1O` [Compound 10, 18-dechloro-decarbamoyl-enacyloxin IIa]: the minimum inhibitory concentration (MIC) turned out to be 32 µg/mL (≈ 51.4 µM).

Consider `CC/C=C/[C@@H](OC(N)=O)[C@@H](Cl)[C@H](O)CC(=O)[C@@H](O)[C@H](O)[C@H](C)/C(Cl)=C/C=C/C=C(C)/C=C/C=C/C(=O)NCC(O)CC(=O)O` (stereo partly drawn) [Compound 23, enacyloxin-4-amino-3-hydroxybutyric acid conjugate], for which the MIC came to 64 µg/mL (≈ 96.7 µM).

For `CC/C=C/[C@@H](O)[C@@H](Cl)[C@H](O)CC(O)[C@@H](O)[C@H](O)[C@H](C)/C(Br)=C/C=C/C=C(C)/C=C/C=C/C(=O)O[C@@H]1C[C@@H](C(=O)O)CC[C@@H]1O` (stereo partly drawn) [Compound 34], the MIC was 2 µg/mL (≈ 2.83 µM).

The test is the same for the next values; noted with them: Acinetobacter baumannii; multi-drug resistant A. baumannii strains; broth microdilution in MH broth, 18 h at 37° C.; read-out: MIC against A. baumannii.
With `CC/C=C/[C@@H](O)[C@@H](Cl)[C@H](O)CC(O)[C@@H](O)[C@H](O)[C@H](C)/C(Cl)=C/C=C/C=C(C)/C=C/C=C/C(=O)O[C@@H]1C[C@@H](C(=O)O)CC[C@@H]1O` (stereo in doubt) [Compound 9, 15-hydroxy-decarbamoyl enacyloxin IIa], the MIC stood at 1 µg/mL (≈ 1.51 µM).

For `CC/C=C/[C@@H](OC(N)=O)[C@@H](Cl)[C@H](O)CC(=O)C[C@H](O)[C@H](C)/C(Cl)=C/C=C/C=C(C)/C=C/C=C/C(=O)O[C@@H]1C[C@@H](C(=O)O)CC[C@@H]1O` [Compound 1, 14-dehydroxy-enacyloxin IIa], the minimal inhibitory concentration (MIC) worked out at 2 µg/mL (≈ 2.91 µM).

Regarding `CC/C=C/C1OC(O)([C@@H](O)[C@H](O)[C@H](C)/C(Cl)=C/C=C/C=C(C)/C=C/C=C/C(=O)O[C@@H]2C[C@@H](C(=O)O)CC[C@@H]2O)CC(O)C1Cl` (stereo partly drawn) [Compound 3, decarbamoyl-enacyloxin IIa], the MIC stood at 4 µg/mL (≈ 6.06 µM).

For `CC/C=C/C1OC(O)(C[C@H](O)[C@H](C)/C(Cl)=C/C=C/C=C(C)/C=C/C=C/C(=O)O[C@@H]2C[C@@H](C(=O)O)CC[C@@H]2O)CC(O)C1Cl` (stereo partly drawn) [Compound 5, 14-dehydroxy-18-decarbamoyl-enacyloxin IIa], the MIC turned out to be 8 µg/mL (≈ 12.4 µM).

Take `CC/C=C/[C@H](C[C@H](O)CC(=O)C[C@H](O)[C@H](C)/C(Cl)=C/C=C/C=C(C)/C=C/C=C/C(=O)O[C@@H]1C[C@@H](C(=O)O)CC[C@@H]1O)OC(N)=O` [Compound 6, 14-dehydroxy-18-dechloro-enacyloxin IIa]: the MIC was 8 µg/mL (≈ 12.3 µM).

On to `CC/C=C/[C@@H](OC(N)=O)[C@@H](Cl)[C@H](O)CC(=O)[C@@H](O)[C@H](O)[C@H](C)/C=C/C=C/C=C(C)/C=C/C=C/C(=O)O[C@@H]1C[C@@H](C(=O)O)CC[C@@H]1O` [Compound 7, 11-dechloro-enacyloxin IIa], for which the minimum inhibitory concentration (MIC) was determined as 4 µg/mL (≈ 5.99 µM).

On to `CC/C=C/[C@@H](O)C[C@H](O)CC(O)[C@@H](O)[C@H](O)[C@H](C)/C(Cl)=C/C=C/C=C(C)/C=C/C=C/C(=O)O[C@@H]1C[C@@H](C(=O)O)CC[C@@H]1O` (stereo partly drawn) [Compound 11], for which the MIC came out at 8 µg/mL (≈ 12.8 µM).

For the compound `CC/C=C/[C@@H](O)C[C@H](O)CC(O)C[C@H](O)[C@H](C)/C=C/C=C/C=C(C)/C=C/C=C/C(=O)O[C@@H]1C[C@@H](C(=O)O)CC[C@@H]1O` (stereo partly drawn) [Compound 12], the MIC was more than 64 µg/mL.

For `CC/C=C/[C@@H](OC(N)=O)[C@@H](Cl)[C@H](O)CC(=O)[C@@H](O)[C@H](O)[C@H](C)/C(Cl)=C/C=C/C=C(C)/C=C/C=C/C(=O)O[C@@H]1C[C@H](C(=O)O)CC[C@H]1O` [Compound 17], the MIC is 2 µg/mL (≈ 2.85 µM).

With `CC/C=C/[C@@H](OC(N)=O)[C@@H](Cl)[C@H](O)CC(=O)[C@@H](O)[C@H](O)[C@H](C)/C(Cl)=C/C=C/C=C(C)/C=C/C=C/C(=O)N[C@H]1CCC[C@H](C(=O)O)C1` [Compound 21], the minimum inhibitory concentration (MIC) was 8 µg/mL (≈ 11.7 µM).

With `CC/C=C/[C@@H](OC(N)=O)[C@@H](Cl)[C@H](O)CC(=O)[C@@H](O)[C@H](O)[C@H](C)/C(Cl)=C/C=C/C=C(C)/C=C/C=C/C(=O)O[C@H]1CCC[C@H](C(=O)O)C1` [Compound 22], the MIC turned out to be 4 µg/mL (≈ 5.83 µM).

With `CC/C=C/[C@@H](OC(N)=O)[C@@H](Cl)[C@H](O)CC(=O)[C@@H](O)[C@H](O)[C@H](C)/C(Cl)=C/C=C/C=C(C)/C=C/C=C/C(=O)O[C@@H]1CC(C(=O)O)=CC[C@@H]1O` [Compound 28, Δ5912-14 unsaturated enacyloxin analogue], the MIC is 0.5 µg/mL (≈ 0.714 µM).

Take `CC/C=C/[C@@H](O)[C@@H](Cl)[C@H](O)C[C@@H](O)[C@@H](O)[C@H](O)[C@H](C)/C(Cl)=C/C=C/C=C(C)/C=C/C=C/C(=O)O[C@@H]1CC(C(=O)O)=CC[C@@H]1O` [Compound 29, Δ5930/32/12-14 unsaturated enacyloxin analogue]: the MIC is 1 µg/mL (≈ 1.52 µM).

Turning to `CC/C=C/[C@@H](OC(N)=O)[C@@H](Br)[C@H](O)CC(=O)[C@@H](O)[C@H](O)[C@H](C)/C(Br)=C/C=C/C=C(C)/C=C/C=C/C(=O)O[C@@H]1C[C@@H](C(=O)O)CC[C@@H]1O` [Compound 30], the MIC is 1 µg/mL (≈ 1.26 µM).

For `CC/C=C/[C@@H](OC(N)=O)[C@@H](Cl)[C@H](O)CC(=O)[C@@H](O)[C@H](O)[C@H](C)/C(Br)=C/C=C/C=C(C)/C=C/C=C/C(=O)O[C@@H]1C[C@@H](C(=O)O)CC[C@@H]1O` [Compound 31], the MIC is 2 µg/mL (≈ 2.68 µM).

Consider `CC/C=C/[C@H](C[C@H](O)CC(=O)[C@@H](O)[C@H](O)[C@H](C)/C(Br)=C/C=C/C=C(C)/C=C/C=C/C(=O)O[C@@H]1C[C@@H](C(=O)O)CC[C@@H]1O)OC(N)=O` [Compound 32], for which the MIC is 16 µg/mL (≈ 22.5 µM).

Turning to `CC/C=C/[C@@H](O)[C@@H](Br)[C@H](O)CC(O)[C@@H](O)[C@H](O)[C@H](C)/C(Br)=C/C=C/C=C(C)/C=C/C=C/C(=O)O[C@@H]1C[C@@H](C(=O)O)CC[C@@H]1O` (stereo partly drawn) [Compound 33], the minimum inhibitory concentration (MIC) was 1 µg/mL (≈ 1.33 µM).

Consider `CC/C=C/[C@@H](O)C[C@H](O)CC(O)[C@@H](O)[C@H](O)[C@H](C)/C(Br)=C/C=C/C=C(C)/C=C/C=C/C(=O)O[C@@H]1C[C@@H](C(=O)O)CC[C@@H]1O` (stereo partly drawn) [Compound 35], for which the MIC stood at 32 µg/mL (≈ 47.6 µM).

The same test, now with this note: multi-drug resistant A. baumannii strains; broth microdilution in MH broth, 18 h at 37° C.
As for 18-dechloro-enacyloxin IIa [Compound 2], the “MIC against A. baumannii” value was 4 µg/mL.
